Molecules are shown by their SMILES.

Holding throughout (test): MIC by broth microdilution (NCCLS M7-A5)
In general terms: Dilution methods test growth across graded concentrations, often in twofold steps.

Assay [1] deals with Serratia marcescens S6.
Assay [2] has as its system Enterobacter cloacae P99.
Assay [3] deals with Acinetobacter sp. J2. As to conditions: Acinetobacter baumannii J2.
For assay [4], the system named is Pseudomonas aeruginosa MK1184.
Assay [5] deals with Pseudomonas aeruginosa 1973E.
In assay [6] the test system is Klebsiella pneumoniae CF104.
The subject of assay [7] is Stenotrophomonas malthophilia 1AC736. As to conditions: Stenotrophomonas maltophilia 1AC736.
Setting [8] is: + 206 + clavulanate, 4 mg/L each.
The mark [9] stands for this setting: + 315 + clavulanate, 4 mg/L each.
Setting [10] is: + 102 + clavulanate, 4 mg/L each.
[11] abbreviates: MIC of antibiotic 1 with the labelled bridged monobactam of formula II and clavulanate, 4 mg/L each.

For `CC1C(NC(=O)C(=NOCc2cc(=O)c(O)cn2O)c2nsc(N)n2)C(=O)N1S(=O)(=O)O` (stereo not drawn) [Compound 2], the MIC of antibiotic in assay [1] (antibiotic alone) was >32 µg/mL; in assay [2] (setting [8]), 16 µg/mL; in assay [2] (antibiotic alone) it was >32 µg/mL; in assay [3] (setting [8]), 16 µg/mL; in assay [3] (antibiotic alone) it was 4 µg/mL; in assay [4] (setting [8]), 16 µg/mL. Moreover, the MIC of antibiotic in assay [4] (antibiotic alone) is 8 µg/mL; in assay [5] (antibiotic alone), 8 µg/mL; in assay [6] (antibiotic alone), >32 µg/mL; in assay [7] (setting [8]), 0.5 µg/mL; in assay [7] (antibiotic alone), 4 µg/mL.
`C[C@H]1[C@H](NC(=O)/C(=N\OCc2cc(=O)c(O)cn2C)c2csc(N)n2)C(=O)N1S(=O)(=O)O` [Compound 6, (3S,4S)-3-{(2Z)-2-(2-amino(1,3-thiazol-4-yl))-3-[(5-hydroxy-1-methyl-4-oxo(2-hydropyridyl))methoxy]-3-azaprop-2-enoylamino}-4-methyl-2-oxoazetidinesulfonic acid]: the MIC of antibiotic is 4 µg/mL in assay [1] (setting [8]); 4 µg/mL in assay [1] (setting [9]); 16 µg/mL in assay [2] (setting [8]); 4 µg/mL in assay [2] (setting [9]); 32 µg/mL in assay [3] (setting [8]); >32 µg/mL in assay [3] (setting [9]). Further, the MIC of antibiotic in assay [4] (setting [8]) was >32 µg/mL; in assay [4] (setting [9]) it was >32 µg/mL; in assay [5] (setting [8]), >32 µg/mL; in assay [5] (setting [9]), >32 µg/mL; in assay [6] (setting [8]), 0.5 µg/mL; in assay [6] (setting [9]) it was 0.5 µg/mL. Besides, the MIC of antibiotic was 4 µg/mL in assay [7] (setting [8]) and 2 µg/mL in assay [7] (setting [9]).
As to `Nc1nc(C(=NOCc2cc(=O)c(O)cn2O)C(=O)NC2CN(S(=O)(=O)O)C2=O)cs1` (stereo not drawn) [Compound 9], the MIC of antibiotic in assay [1] (setting [10]) is 1 µg/mL; in assay [1] (antibiotic alone) it was 16 µg/mL; in assay [2] (setting [10]), 32 µg/mL; in assay [2] (antibiotic alone), >32 µg/mL; in assay [3] (setting [10]) it was >32 µg/mL; in assay [3] (antibiotic alone), >32 µg/mL. The MIC of antibiotic is 4 µg/mL in assay [4] (setting [10]); >32 µg/mL in assay [4] (antibiotic alone); 8 µg/mL in assay [5] (setting [10]); 8 µg/mL in assay [5] (antibiotic alone); 0.5 µg/mL in assay [6] (setting [10]); >32 µg/mL in assay [6] (antibiotic alone). Further, the MIC of antibiotic stood at 0.25 µg/mL in assay [7] (setting [10]) and 0.5 µg/mL in assay [7] (antibiotic alone).
For `CC1C(NC(=O)C(=NOCc2cc(=O)c(O)cn2O)c2noc(N)n2)C(=O)N1S(=O)(=O)O` (stereo not drawn) [Compound 16], the MIC of antibiotic was >32 µg/mL in assay [1] (setting [10]); >32 µg/mL in assay [1] (antibiotic alone); >32 µg/mL in assay [2] (setting [10]); >32 µg/mL in assay [2] (antibiotic alone); 16 µg/mL in assay [3] (setting [10]); >32 µg/mL in assay [3] (antibiotic alone). Besides, the MIC of antibiotic in assay [4] (setting [10]) was 16 µg/mL; in assay [4] (antibiotic alone), >32 µg/mL; in assay [5] (setting [10]), 16 µg/mL; in assay [5] (antibiotic alone) it was >32 µg/mL; in assay [6] (setting [10]), 32 µg/mL; in assay [6] (antibiotic alone), >32 µg/mL. Further, the MIC of antibiotic was 2 µg/mL in assay [7] (setting [10]) and >32 µg/mL in assay [7] (antibiotic alone).
Consider `CC1C(NC(=O)C(=NOCc2cc(=O)c(O)cn2O)c2cccc(N)n2)C(=O)N1S(=O)(=O)O` (stereo not drawn) [Compound 20], for which the MIC of antibiotic in assay [1] (setting [10]) worked out at 0.5 µg/mL; in assay [1] (setting [8]) it was 0.5 µg/mL; in assay [1] (+ 501 4 mg/L) it was 2 µg/mL; in assay [1] (+ clavulanate 4 mg/L), 2 µg/mL; in assay [1] (antibiotic alone), 4 µg/mL; in assay [2] (setting [10]) it was 16 µg/mL. The MIC of antibiotic was 16 µg/mL in assay [2] (setting [8]); >32 µg/mL in assay [2] (+ 501 4 mg/L); >32 µg/mL in assay [2] (+ clavulanate 4 mg/L); >32 µg/mL in assay [2] (antibiotic alone); >32 µg/mL in assay [3] (setting [10]); >32 µg/mL in assay [3] (setting [8]). For the same molecule, the MIC of antibiotic in assay [3] (+ 501 4 mg/L) is <0.06 µg/mL; in assay [3] (+ clavulanate 4 mg/L), >32 µg/mL; in assay [3] (antibiotic alone), >32 µg/mL; in assay [4] (setting [10]), 8 µg/mL; in assay [4] (setting [8]) it was >32 µg/mL; in assay [4] (+ 501 4 mg/L), >32 µg/mL. Besides, the MIC of antibiotic in assay [4] (+ clavulanate 4 mg/L) was >32 µg/mL; in assay [4] (antibiotic alone), >32 µg/mL; in assay [5] (setting [10]), 32 µg/mL; in assay [5] (setting [8]) it was 16 µg/mL; in assay [5] (+ 501 4 mg/L) it was 16 µg/mL; in assay [5] (+ clavulanate 4 mg/L), 16 µg/mL. Also, the MIC of antibiotic in assay [5] (antibiotic alone) was 16 µg/mL; in assay [6] (setting [10]), 2 µg/mL; in assay [6] (setting [8]) it was 4 µg/mL; in assay [6] (+ 501 4 mg/L), 16 µg/mL; in assay [6] (+ clavulanate 4 mg/L) it was 32 µg/mL; in assay [6] (antibiotic alone) it was >32 µg/mL. Further, the MIC of antibiotic in assay [7] (setting [10]) was determined as 0.25 µg/mL; in assay [7] (setting [8]) it was 0.5 µg/mL; in assay [7] (+ 501 4 mg/L), 0.25 µg/mL; in assay [7] (+ clavulanate 4 mg/L), 0.25 µg/mL; in assay [7] (antibiotic alone), 4 µg/mL.
Take `C[C@H]1[C@H](NC(=O)/C(=N\OCc2cc(=O)c(O)cn2O)c2nccc(N)n2)C(=O)N1S(=O)(=O)O` [Compound 21, (3S,4S)-3-{(2Z)-2-(4-aminopyrimidin-2-yl)-3-[(1,5-dihydroxy-4-oxo(2-hydropyridyl))methoxy]-3-azaprop-2-enoylamino}-4-methyl-2-oxoazetidinesulfonic acid]: the MIC of antibiotic in assay [1] (+ 102 + sulbactam, 4 mg/L each) is 16 µg/mL; in assay [1] (+ 324 + sulbactam, 4 mg/L each), 4 µg/mL; in assay [1] (antibiotic alone), 8 µg/mL; in assay [2] (+ 102 + sulbactam, 4 mg/L each), 32 µg/mL; in assay [2] (+ 324 + sulbactam, 4 mg/L each), 8 µg/mL; in assay [2] (antibiotic alone), >32 µg/mL. Also, the MIC of antibiotic was 2 µg/mL in assay [3] (+ 102 + sulbactam, 4 mg/L each); 2 µg/mL in assay [3] (+ 324 + sulbactam, 4 mg/L each); >32 µg/mL in assay [3] (antibiotic alone); 32 µg/mL in assay [4] (+ 102 + sulbactam, 4 mg/L each); 32 µg/mL in assay [4] (+ 324 + sulbactam, 4 mg/L each); >32 µg/mL in assay [4] (antibiotic alone). Also, the MIC of antibiotic in assay [5] (+ 102 + sulbactam, 4 mg/L each) was 16 µg/mL; in assay [5] (+ 324 + sulbactam, 4 mg/L each), 16 µg/mL; in assay [5] (antibiotic alone) it was 8 µg/mL; in assay [6] (+ 102 + sulbactam, 4 mg/L each), 2 µg/mL; in assay [6] (+ 324 + sulbactam, 4 mg/L each), 4 µg/mL; in assay [6] (antibiotic alone), >32 µg/mL. Besides, the MIC of antibiotic came out at 8 µg/mL in assay [7] (+ 102 + sulbactam, 4 mg/L each); 4 µg/mL in assay [7] (+ 324 + sulbactam, 4 mg/L each); 8 µg/mL in assay [7] (antibiotic alone).
Take `C[C@H]1[C@H](NC(=O)/C(=N\OCc2cc(=O)c(O)cn2O)c2csc(N)n2)C(=O)N1OCC(=O)O` [Compound 22, 2-((3S,4S)-3-{(2Z)-2-(2-amino(1,3-thiazol-4-yl))-3-[(1,5-dihydroxy-4-oxo(2-hydropyridyl))methoxy]-3-azaprop-2-enoylamino}-4-methyl-2-oxoazetidinyloxy)acetic acid]: the MIC of antibiotic is 0.25 µg/mL in assay [1] (setting [10]); 0.13 µg/mL in assay [1] (antibiotic alone); 8 µg/mL in assay [2] (setting [10]); >32 µg/mL in assay [2] (antibiotic alone); 4 µg/mL in assay [3] (setting [10]); >32 µg/mL in assay [3] (antibiotic alone). Besides, the MIC of antibiotic in assay [4] (setting [10]) is 4 µg/mL; in assay [4] (antibiotic alone) it was 8 µg/mL; in assay [5] (setting [10]) it was 4 µg/mL; in assay [5] (antibiotic alone), 4 µg/mL; in assay [6] (setting [10]), 0.25 µg/mL; in assay [6] (antibiotic alone), >32 µg/mL. Moreover, the values for the MIC of antibiotic in assay [7] (setting [10]) and in assay [7] (antibiotic alone) were 1 µg/mL and 0.5 µg/mL, respectively.
In the case of `Nc1nc(CC(=O)N2CC[C@@H]3[C@H]2C(=O)N3S(=O)(=O)O)cs1` [Compound 401], the “MIC of antibiotic at fixed inhibitor concentration (4 mg/L)” value in assay [1] (setting [11]) is 3.125 µg/mL; in assay [5] (setting [11]), 3 µg/mL; in assay [6] (setting [11]), 35 µg/mL.

Source of the values: patent US9346799B2, “Useful combinations of monobactam antibiotics with beta-lactamase inhibitors” (Basilea Pharmaceutica AG, priority 2005, dated 2016).
